Data taken from patent US9907306B2, “Compositions and methods for controlling nematode pests” (Monsanto Technology LLC, priority 2010, dated 2018).

Tests used:
[1] = test system: soybean cyst nematode (SCN); experiment: SCN greenhouse soil assay on soybean plants; type: in vivo, H. glycines; conditions: 0 day treatment, 0.25 kg/ha rate, harvested 28 days after egg inoculation
Text: Soybeans seeds are planted in 100% sand in two inch square plastic pots.
Chemical treatment is done when the soybeans show the first trifoliate beginning to emerge about 10 to 12 days after planting. At least four hours after chemical application the nematode soybean cyst nematode (SCN) eggs are applied and 28 days after the egg inoculation the test is harvested.
(§1) One milligram of chemistry per four pots is equal to one kilogram per hectare of chemical. A standard test uses four replications. For rates above 2 kg/ha, the desired amount of chemical is weighed into a 30 ml vial (example: 8 kg/ha rate=8 mg chemical in 30 ml vial). The chemical is dissolved in 2 ml of appropriate solvent, generally acetone. For rates below 2 kg/ha, 2 milligrams of chemistry is weighed into the vial and dissolved in 2 ml of the solvent. The appropriate amount of chemical concentrate is then pipetted into a separate 30 ml vial and solvent is added to bring the volume to 2 ml (example 0.5 kg/ha=0.5 ml of concentrate+1.5 ml solvent). Each dissolved concentrate is then brought to a total of 20 milliliters using 0.05% Triton X 100 surfactant solution.
(§2) Pots to be treated are moist but not saturated. To each of four pots, five milliliters of the appropriate chemical solution is pipetted to the media surface making sure to avoid contact with the base of the plant. Immediately following chemical application, using a mist nozzle, the pot surface is wetted sufficiently to saturate the pot watering in the chemistry. The chemical application is done in the morning.
(§3) Nematode eggs, either SCN or RKN, are added to distilled water to create a concentration of […] of water. At least four hours after chemical treatment (0 day testing) or 1 week later (7 day longevity testing) the eggs are applied to the treated pots plus non-treated check plants. A small hole about 1 cm deep is punched into the pot surface. One milliliter of the nematode egg slurry is pipetted into the hole. Immediately afterwards the hole is gently covered. Watering of the test plants is then restricted to only water as needed to prevent wilt for a period of 24 hours. After the 24 hour restricted watering, normal sub-irrigation watering is done for the duration of the test.

[2] = classification by the US Environmental Protection Agency; cited from earlier work
[3] = test system: Meloidogyne incognita; experiment: M. incognita miniaturized greenhouse assay (cucumber seedling in sand, root galling); type: in vivo; conditions: average of triplicate gall rating, scale 0=0-5%, 1=6-20%, 2=21-50%, 3=51-100% root mass galled, 10 to 12 days after inoculation
Experimental: The test compound is dissolved in an acetone solution and added to water. A sprouted cucumber seedling is placed into a vial with dry sand and the water-chemical solution is added immediately. Twenty four hours later Meloidogyne incognita eggs are added to the vials and 10 to 12 days later the roots are evaluated for nematode galling.
Cucumber seeds are sprouted for 3 days in moist paper towels. Acceptable sprouts should be 3 to 4 cm long with several lateral roots just emerging. Stock solutions of chemistry are prepared in a mixture of acetone and Triton X100 (412 mg in 500 mL) to a final concentration of 5 mg/mL. The chemical stock solution is then added to 10 mL deionized water plus 0.015% Triton X100 and mixed thoroughly. This is enough to test each condition in triplicate. Ten mL dry sand is added to each vial. At this time the solubility of the chemistry is visually determined and recorded as either ppt (large precipitates) or cloudy (fine precipitates). Seedlings are planted by tilting the vial and laying the seedling in the correct orientation so that the cotyledons are just above the sand and then tilting back to cover the radicles with sand. 3.3 ml water/chemical mix is added to each vial and the vials placed in racks under fluorescent light banks. The vials are inoculated two days after planting by adding 500 vermiform M. incognita eggs to each vial in 50 uL of deionized or spring water. The vials are then kept under the fluorescent lamps at ambient room temperature and watered as needed with 1 mL deionized water, usually twice during duration of test. Harvest of the cucumber plants is done 10 to 12 days after inoculation by washing sand off the roots. A root gall rating and visual phytotoxicity rating is assigned using the following scales: Gall rating scale (Gall: % root mass galled): 0=0-5%; 1=6-20%; 2=21-50%; and 3=51-100%. The average of the triplicate gall rating is then calculated: green=0.00-0.33 (no galls); yellow=0.67-1.33 (mild galling); orange=1.67-2.33 (moderate galling); red=2.67-3.00 (severe galling). Visual phytotoxicity scale is also assigned (Vis. tox; visual reduction in root mass compared to the control): rs1=mild stunting; rs2=moderate stunting; rs3=severe stunting.

[4] = test system: C. elegans; experiment: C. elegans well test (contact assay); type: cell-based; conditions: L1 worms, 20° C.
Experimental: C. elegans: Various compounds were tested for nematicidal activity against C. elegans using contact assays in wells. The assays were performed as described below. The test compounds were solubilized in DMSO at 10 mg/ml to create 100× stock solutions. A dilution series was created by diluting the stock solution with DMSO. For each well assay 4 ul of the appropriate dilution is added to a well of a test plate. A 400 ul aliquot of bacterial stock (in M9 buffer with ampicillin) is added to each well of the test plate. Worms are added and the test plate placed on a rotary shaker incubated at 20° C. Worms are examined and scored at 24 hrs, 48 hrs and 72 hours. L1 worms used in the assay are prepared by plating eggs on a plate without a bacterial feeding layer. The eggs hatch and arrest at the L1 stage. This L1 stage population is then used to create a stock for the experiments. A 25 ul aliquot of worms is added to each well in the assay.

[5] = test system: root knot nematode (RKN); experiment: RKN greenhouse soil assay on cucumber plants; type: in vivo, M. incognita; conditions: 7 day treatment, rated 14 days after egg inoculation
Text: Cucumber seeds are planted in a sandy soil mixture in two inch square plastic pots. When the cotyledons are fully opened and just as the first leaf begins to emerge, usually 7 days after planting, chemistry for the 7-day treatment is applied. One week later the chemistry for the 0 day treatment is applied. Separate plants are used for each application. The plants are generally in the 1-2 leaf stage now. At least four hours after the chemistry application the pots are inoculated with root knot nematode (RKN) eggs. Plants are rated for galling 14 days after the egg inoculation.
as §1, §2, §3

[6] = test system: H. contortus; experiment: H. contortus larval development assay; type: cell-based; conditions: at 72 hours; hatching and larval movement
Experimental: The assay was performed essentially as described in: Hubert J, Kerboeuf D. A new method for culture of larvae used in diagnosis of ruminant gastrointestinal strongylosis: comparison with fecal cultures. Can J Comp Med. 1984 48(1):63-71. H. contortus eggs were obtained from Myers Parasitology (Magnolia, Ky.). The test compounds were solubilized in DMSO to create […] stock solutions. 2 ul of compound at various concentrations followed by 200 ul of molten agar were mixed into the wells. Approximately 50 eggs were placed in the well and incubated for 24 hours. After this time, >50% of the eggs were hatched in DMSO controls. After 24 hr, 100 ul of growth medium (Earle's salt solution, 1% yeast extract, 0.9% saline, and sodium bicarbonate to pH 7) containing compound was added to allow larval feeding. After 48 hr in growth medium (total of 72 hours) the wells were evaluated for hatching and larval movement.

[7] = 1 ppm, letters a-d mark separate tests

EC50 ([4]; 1 day)	EC50 ([4]; 2 days)	EC50 ([4]; 3 days)	SMILES	percent control (cyst reduction) relative to the control blank treatment [1] [%^]	toxicity class [2]	gall ratings [3, 7]	gall ratings ([3]; 8 ppm)	percent control (galling reduction) relative to the control blank treatment ([5]; 0.1 kg/ha rate) [%]	percent control (galling reduction) relative to the control blank treatment ([5]; 0.25 kg/ha rate) [%]	EC50 [6]
–	–	–	CNC(=O)O/N=C(\SC)C(=O)N(C)C [Oxamyl, reference compound]	75	Class I	–	–	–	–	–
0.8 ppm	0.8 ppm	0.9 ppm	Clc1ccc(-n2nnc(-c3cccs3)n2)cc1 [compound 1]	24	–	0.67	0	89	92	<6.3 ppm
> 50 ppm	0.8 ppm	0.8 ppm	c1ccc(-n2nnc(-c3cccs3)n2)cc1 [compound 2]	52	–	0.67	0.33	47	53	6.3-25 ppm
0.8/0.8/0.8 ppm	0.8/0.8/0.8 ppm	0.8/0.8/0.8 ppm	Cc1cc(Cl)ccc1-n1nnc(-c2ccco2)n1 [compound 3]	44	–	1.33	0	–	–	<6.3 ppm
–	–	–	Clc1ccc(-n2nnc(N3CCCC3)n2)cc1 [compound 4]	–	–	1.33	0.33	–	–	–
–	–	–	Cn1cccc1-c1nnn(-c2ccccc2)n1 [compound 5]	–	–	2.33	0.00	–	–	–
–	–	–	c1ccc(-c2nnn(-c3cccs3)n2)cc1 [compound 6]	–	–	1.33	0.00	–	–	–
–	–	–	c1ccc(-n2nnc(-n3cccc3)n2)cc1 [compound 7]	–	–	1.67	0.33	–	–	–
